This passage reports IC50 results from patent US20230024302A1, “2,3,5-TRISUBSTITUTED PYRAZOLO[1,5-A]PYRIMIDINE COMPOUNDS” (Arcus Biosciences, Inc., priority 2019, published 2023).

In one assay the target is T1, PI3Kγ (p120γ) (Homo sapiens, UniProt P48736).
T1 construct: purchased Promega V1761
The assay is described as follows: Inhibition of PI3K kinase activity (ADP Glo), PI3Kγ. Conditions: read-out: biochemical potency (PI3Kγ IC50). The essentials: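 Recombinant p120γ (8 nM, 2× stock) was preincubated with compound for 1 h at rt in HEPES pH 7.4, NaCl, MgCl2 and 0.05% BSA. Reaction was started with PIP2 (0.1 mg/ml, 2×) and ATP (50 μM, 2×) and ran 60 min at rt. ADP formed was read by ADP-Glo luminescence, and IC50 came from a 4-parameter fit.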

For another assay, the target named is T2, PI3Kγ (Homo sapiens, UniProt P48736).
T2 construct: host or cells: THP-1
The experiment in a line: PI3Kγ cellular assay in THP-1 cells (AKT pS473 AlphaLISA). The class given is cell-based. In short, it runs like this:
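Serum-starved THP-1 cells (1.8×10^5/well, serum-free DMEM) treated with compounds from 4 nM to 30 μM in 2% DMSO, then stimulated and lysed.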

The mark [1] stands for this setting: Table 1, rhMCP-1 stimulated AKT pS473, read-out: cellular potency (PI3Kγ IC50).
[2] abbreviates: Table 2, rhMCP-1 stimulated AKT pS473, read-out: cellular potency (PI3Kγ IC50).
Where [3] appears, read: Table 6, rhMCP-1 stimulated AKT pS473, read-out: cellular potency (PI3Kγ IC50).
Setting [4] is: Table 3, rhMCP-1 stimulated AKT pS473, read-out: cellular potency (PI3Kγ IC50).
Setting [5] is: AKT pS473, read-out: cellular potency (PI3Kγ IC50).

Where two headings read alike, the source gives them in different places.

T2 sequence (P48736 whole entry): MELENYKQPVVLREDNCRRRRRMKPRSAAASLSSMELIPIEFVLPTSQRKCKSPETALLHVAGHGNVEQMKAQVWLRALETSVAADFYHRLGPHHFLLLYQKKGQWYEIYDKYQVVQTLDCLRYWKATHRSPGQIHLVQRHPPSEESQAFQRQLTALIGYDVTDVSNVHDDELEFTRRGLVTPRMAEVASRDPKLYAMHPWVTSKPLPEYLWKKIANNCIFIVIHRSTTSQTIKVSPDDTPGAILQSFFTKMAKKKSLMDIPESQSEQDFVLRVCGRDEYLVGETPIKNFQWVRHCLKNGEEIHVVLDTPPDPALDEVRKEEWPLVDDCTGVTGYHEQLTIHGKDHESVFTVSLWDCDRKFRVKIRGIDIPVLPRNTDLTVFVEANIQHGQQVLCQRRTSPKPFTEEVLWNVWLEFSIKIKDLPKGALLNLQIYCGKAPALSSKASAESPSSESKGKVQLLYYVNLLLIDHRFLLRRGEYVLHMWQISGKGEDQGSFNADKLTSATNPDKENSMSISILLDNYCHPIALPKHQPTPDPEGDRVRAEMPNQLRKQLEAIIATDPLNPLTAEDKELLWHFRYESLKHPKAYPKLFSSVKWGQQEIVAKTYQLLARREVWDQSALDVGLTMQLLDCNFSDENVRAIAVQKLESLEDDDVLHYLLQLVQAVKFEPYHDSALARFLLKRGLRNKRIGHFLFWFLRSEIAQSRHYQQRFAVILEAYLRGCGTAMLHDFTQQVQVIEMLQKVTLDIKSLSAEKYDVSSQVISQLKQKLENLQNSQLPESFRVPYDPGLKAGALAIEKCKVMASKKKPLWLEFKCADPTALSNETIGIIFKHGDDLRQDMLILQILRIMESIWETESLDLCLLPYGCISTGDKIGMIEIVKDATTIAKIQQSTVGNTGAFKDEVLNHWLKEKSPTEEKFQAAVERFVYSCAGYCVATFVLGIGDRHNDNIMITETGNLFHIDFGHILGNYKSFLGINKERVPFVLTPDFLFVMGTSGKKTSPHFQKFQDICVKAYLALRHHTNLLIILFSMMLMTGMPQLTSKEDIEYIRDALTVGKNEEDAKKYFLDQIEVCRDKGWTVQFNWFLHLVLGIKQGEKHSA
T1 sequence (P48736 whole entry): as above

Take `C[C@@H](C1CC1)N1Cc2cc(-c3ccn4nc(N)c(C(=O)NCCCO)c4n3)cc(C(F)(F)F)c2C1=O` [Example 52, 2-[(S)-1-Cyclopropylethyl]-5-{2-amino-3-[(3-hydroxypropylamino)carbonyl]-1,4,7a-triaza-5-indenyl}-7-(trifluoromethyl)-1-isoindolinone]: the IC50 on PI3Kγ (p120γ) (Table 1, p120γ) was under 100 nM; on PI3Kγ (setting [1]), under 100 nM.

As for `C[C@@H](C1CC1)N1Cc2cc(-c3ccn4nc(N)c(C(=O)Nc5ccc(CO)cc5)c4n3)cc(NS(C)(=O)=O)c2C1=O` [Example 105, 2-Amino-5-{2-[(1S)-1-cyclopropylethyl]-7-methanesulfonamido-1-oxo-2,3-dihydro-1H-isoindol-5-yl}-N-[4-(hydroxymethyl)phenyl]pyrazolo[1,5-a]pyrimidine-3-carboxamide], the IC50 at PI3Kγ (p120γ) (Table 1, p120γ) is under 100 nM; on PI3Kγ (setting [1]), under 100 nM.

As for `Cc1cc(-c2ccn3nc(N)c(C(=O)N[C@H](C)c4cnn(C)c4)c3n2)cc2c1C(=O)N([C@@H](C)C1CC1)C2` [Example 175], the IC50 is under 100 nM on PI3Kγ (p120γ) (Table 2, p120γ) and 100 to 1000 nM at PI3Kγ (setting [2]).

As to `C[C@@H](C1CC1)N1Cc2cc(-c3ccn4nc(N)c(C(=O)NC5CC5)c4n3)cc(S(C)(=N)=O)c2C1=O` (stereo partly shown) [Example 447], the IC50 on PI3Kγ (p120γ) (Table 6, p120γ) is under 100 nM; at PI3Kγ (setting [3]), 100 to 1000 nM.

On to `Cc1cc(-c2ccn3nc(N)c(C(=O)N[C@@H](CO)C4CC4)c3n2)cc2c1C(=O)N(CC(C)(C)O)C2` [Example 321], for which the IC50 was under 100 nM on PI3Kγ (p120γ) (Table 2, p120γ) and 100 to 1000 nM at PI3Kγ (setting [2]).

Take `C[C@H](CO)NC(=O)c1c(N)nn2ccc(-c3cc4c(c(OC5CC(F)(F)C5)c3)C(=O)N([C@@H](C)C3CC3)C4)nc12` [Example 439]: the half-inhibitory concentration (IC50) at PI3Kγ (p120γ) (Table 6, p120γ) is under 100 nM; on PI3Kγ (setting [3]) it was 100 to 1000 nM.

Regarding `C[C@@H](C1CC1)N1Cc2cc(-c3ccn4nc(N)c(C(=O)NC5COC5)c4n3)cc(C(F)(F)F)c2C1=O` [Example 53, 2-[(S)-1-Cyclopropylethyl]-5-{2-amino-3-[(3-oxetanylamino)carbonyl]-1,4,7a-triaza-5-indenyl}-7-(trifluoromethyl)-1-isoindolinone], the IC50 was under 100 nM on PI3Kγ (p120γ) (Table 1, p120γ) and under 100 nM at PI3Kγ (setting [1]).

For `C[C@@H](C1CC1)N1Cc2cc(-c3ccn4nc(N)c(C(=O)Nc5ccncc5)c4n3)cc(OC(F)(F)F)c2C1=O` [Example 40, (S)-2-Amino-5-(2-(1-cyclopropylethyl)-1-oxo-7-(trifluoromethoxy)isoindolin-5-yl)-N-(pyridin-4-yl)pyrazolo[1,5-a]pyrimidine-3-carboxamide], the IC50 was under 100 nM at PI3Kγ (p120γ) (Table 1, p120γ) and under 100 nM on PI3Kγ (setting [1]).

Regarding `C[C@@H](C1CC1)N1Cc2cc(-c3ccn4nc(N)c(C(=O)NC5CC5)c4n3)cc(N3CC[C@H](O)C3)c2C1=O` [Example 152, 2-Amino-N-cyclopropyl-5-{2-[(1S)-1-cyclopropylethyl]-7-[(3S)-3-hydroxypyrrolidin-1-yl]-1-oxo-2,3-dihydro-1H-isoindol-5-yl}pyrazolo[1,5-a]pyrimidine-3-carboxamide], the IC50 on PI3Kγ (p120γ) (Table 1, p120γ) was under 100 nM; at PI3Kγ (setting [1]) it was under 100 nM.

In the case of `C[C@@H](C1CC1)N1Cc2cc(-c3ccn4nc(N)c(C(=O)N[C@H]5CC[C@@](O)(C(F)(F)F)CC5)c4n3)cc(C(F)(F)F)c2C1=O` [Example 345], the IC50 on PI3Kγ (p120γ) (Table 3, p120γ) was under 100 nM; on PI3Kγ (setting [4]) it was 100 to 1000 nM.

`CNC(=O)c1c(N)nn2ccc(-c3cc4c(c(NS(C)(=O)=O)c3)C(=O)N([C@@H](C)C3CC3)C4)nc12` [Example 73, 2-Amino-5-{2-[(1S)-1-cyclopropylethyl]-7-methanesulfonamido-1-oxo-2,3-dihydro-1H-isoindol-5-yl}-N-methylpyrazolo[1,5-a]pyrimidine-3-carboxamide]: the IC50 was under 100 nM on PI3Kγ (p120γ) (Table 1, p120γ) and under 100 nM at PI3Kγ (setting [1]).

As for `C[C@H](CCO)NC(=O)c1c(N)nn2ccc(-c3cc4c(c(C(F)(F)F)c3)C(=O)N([C@@H](C)C3CC3)C4)nc12` [Example 57, 5-(3-{[(R)-3-Hydroxy-1-methylpropylamino]carbonyl}-2-amino-1,4,7a-triaza-5-indenyl)-2-[(S)-1-cyclopropylethyl]-7-(trifluoromethyl)-1-isoindolinone], the IC50 on PI3Kγ (p120γ) (Table 1, p120γ) was under 100 nM; at PI3Kγ (setting [1]), under 100 nM.

Take `C[C@@H](C1CC1)N1Cc2cc(-c3ccn4nc(N)c(C(=O)N[C@]5(C)C[C@@H](O)C5)c4n3)cc(NS(C)(=O)=O)c2C1=O` [Example 83, 2-Amino-5-{2-[(1S)-1-cyclopropylethyl]-7-methanesulfonamido-1-oxo-2,3-dihydro-1H-isoindol-5-yl}-N-[trans-3-hydroxy-1-methylcyclobutyl]pyrazolo[1,5-a]pyrimidine-3-carboxamide]: the IC50 was under 100 nM on PI3Kγ (p120γ) (Table 1, p120γ) and under 100 nM on PI3Kγ (setting [1]).

Take `C[C@@H](C1CC1)N1Cc2cc(-c3ccn4nc(N)c(C(=O)N[C@@H]5CNC[C@H]5O)c4n3)cc(C(F)(F)F)c2C1=O` [Example 360]: the IC50 at PI3Kγ (p120γ) (Table 3, p120γ) is under 100 nM; at PI3Kγ (setting [4]) it was over 1000 nM.

With `C[C@@H](C1CC1)N1Cc2cc(-c3ccn4nc(N)c(C(=O)N[C@H]5CNC[C@@H]5O)c4n3)cc(C(F)(F)F)c2C1=O` [Example 359], the IC50 was under 100 nM on PI3Kγ (p120γ) (Table 3, p120γ) and over 1000 nM at PI3Kγ (setting [4]).

With `Cc1cc(-c2ccn3nc(N)c(C(=O)N[C@@H](C)c4nccs4)c3n2)cc2c1C(=O)N([C@@H](C)C1CC1)C2` [Example 178], the IC50 was under 100 nM on PI3Kγ (p120γ) (Table 2, p120γ) and 100 to 1000 nM at PI3Kγ (setting [2]).

In the case of `C[C@@H](C1CC1)N1Cc2cc(-c3ccn4nc(N)c(C(=O)NC5CC5)c4n3)cc(C3CC3)c2C1=O` [Example 165, 2-Amino-N-cyclopropyl-5-{7-cyclopropyl-2-[(1S)-1-cyclopropylethyl]-1-oxo-2,3-dihydro-1H-isoindol-5-yl}pyrazolo[1,5-a]pyrimidine-3-carboxamide], the IC50 at PI3Kγ (p120γ) (Table 1, p120γ) was under 100 nM; on PI3Kγ (setting [1]), under 100 nM.

Turning to `COc1ccc(NC(=O)c2c(N)nn3ccc(-c4cc5c(c(NS(C)(=O)=O)c4)C(=O)N([C@@H](C)C4CC4)C5)nc23)cc1` [Example 380], the IC50 on PI3Kγ (p120γ) was under 100 nM; on PI3Kγ (setting [5]) it was 100 to 1000 nM.

Consider `Cc1cc(-c2ccn3nc(N)c(C(=O)NC[C@@H](C)O)c3n2)cc2c1C(=O)N([C@@H](C)C1CC1)C2` [Example 227], for which the IC50 at PI3Kγ (p120γ) (Table 2, p120γ) is under 100 nM; at PI3Kγ (setting [2]) it was 100 to 1000 nM.

`C[C@@H](C1CC1)N1Cc2cc(-c3ccn4nc(N)c(C(=O)NC5(C#N)COC5)c4n3)cc(NS(C)(=O)=O)c2C1=O` [Example 80, 2-Amino-N-(3-cyanooxetan-3-yl)-5-{2-[(1S)-1-cyclopropylethyl]-7-methanesulfonamido-1-oxo-2,3-dihydro-1H-isoindol-5-yl}pyrazolo[1,5-a]pyrimidine-3-carboxamide]: the IC50 at PI3Kγ (p120γ) (Table 1, p120γ) is under 100 nM; at PI3Kγ (setting [1]), under 100 nM.

`Cc1ncccc1NC(=O)c1c(N)nn2ccc(-c3cc4c(c(OC(F)(F)F)c3)C(=O)N([C@@H](C)C3CC3)C4)nc12` [Example 44, 2-[(S)-1-Cyclopropylethyl]-5-{2-amino-3-[(2-methyl-3-pyridylamino)carbonyl]-1,4,7a-triaza-5-indenyl}-7-trifluoromethoxy-1-isoindolinone]: the IC50 at PI3Kγ (p120γ) (Table 1, p120γ) is under 100 nM; at PI3Kγ (setting [1]) it was under 100 nM.

Consider `Cc1cc(-c2ccn3nc(N)c(C(=O)N[C@@H]4CCNC4=O)c3n2)cc2c1C(=O)N([C@@H](C)C1CC1)C2` [Example 283], for which the IC50 on PI3Kγ (p120γ) (Table 2, p120γ) was under 100 nM; at PI3Kγ (setting [2]) it was 100 to 1000 nM.

For `Cc1cc(-c2ccn3nc(N)c(C(=O)NCC(N)=O)c3n2)cc2c1C(=O)N([C@@H](C)C1CC1)C2` [Example 236], the 50% inhibitory concentration (IC50) at PI3Kγ (p120γ) (Table 2, p120γ) was under 100 nM; on PI3Kγ (setting [2]) it was 100 to 1000 nM.

`C[C@@H](C1CC1)N1Cc2cc(-c3ccn4nc(N)c(C(=O)Nc5ccnc(C#N)c5)c4n3)cc(C(F)(F)F)c2C1=O` [Example 350]: the half-inhibitory concentration (IC50) at PI3Kγ (p120γ) (Table 3, p120γ) was under 100 nM; at PI3Kγ (setting [4]), 100 to 1000 nM.

For the compound `C[C@@H](C1CC1)N1Cc2cc(-c3ccn4nc(N)c(C(=O)NC5CC5)c4n3)cc(O[C@@H]3CCOC3)c2C1=O` [Example 148, 2-Amino-N-cyclopropyl-5-{2-[(1S)-1-cyclopropylethyl]-1-oxo-7-[(3R)-oxolan-3-yloxy]-2,3-dihydro-1H-isoindol-5-yl}pyrazolo[1,5-a]pyrimidine-3-carboxamide], the IC50 on PI3Kγ (p120γ) (Table 1, p120γ) is under 100 nM; on PI3Kγ (setting [1]), under 100 nM.

As to `COC(=O)c1cc(NC(=O)c2c(N)nn3ccc(-c4cc5c(c(NS(C)(=O)=O)c4)C(=O)N([C@@H](C)C4CC4)C5)nc23)ccn1` [Example 375], the IC50 at PI3Kγ (p120γ) is under 100 nM; on PI3Kγ (setting [5]), 100 to 1000 nM.

With `Cc1cc(-c2ccn3nc(N)c(C(=O)N[C@H](C)CO)c3n2)cc2c1C(=O)N([C@@H](C)C1CC1)C2` [Example 206], the IC50 is under 100 nM on PI3Kγ (p120γ) (Table 2, p120γ) and 100 to 1000 nM on PI3Kγ (setting [2]).

Consider `C[C@@H](C1CC1)N1Cc2cc(-c3ccn4nc(N)c(C(=O)N[C@@H]5CCC[C@H](N(C)C)C5)c4n3)cc(C(F)(F)F)c2C1=O` [Example 362], for which the IC50 on PI3Kγ (p120γ) (Table 3, p120γ) is under 100 nM; at PI3Kγ (setting [4]), 100 to 1000 nM.

For the compound `C[C@@H](C1CC1)N1Cc2cc(-c3ccn4nc(N)c(C(=O)NC5CC5)c4n3)cc(N(C)S(C)(=O)=O)c2C1=O` [Example 114, 2-Amino-N-cyclopropyl-5-{2-[(1S)-1-cyclopropylethyl]-7-(N-methylmethanesulfonamido)-1-oxo-2,3-dihydro-1H-isoindol-5-yl}pyrazolo[1,5-a]pyrimidine-3-carboxamide], the IC50 at PI3Kγ (p120γ) (Table 1, p120γ) is under 100 nM; at PI3Kγ (setting [1]), under 100 nM.
